The text below walks through data of article PMC5218480 (PLoS ONE, 2017).

The assay concerns MV-4-11 cells. Kind of assay: Gene expression microarray analysis (Affymetrix PrimeView) and GSEA. The format is cell-based, human. Further details: RFU PODN (11730768_x_at) / Fold change /veh PODN (11730768_x_at) / RFU LINC00158 (11744669_a_at) / Fold change /veh LINC00158 (11744669_a_at) / RFU DUSP10 (11751237_a_at) / Fold change /veh DUSP10 (11751237_a_at) / RFU ID3 (11757404_x_at) / Fold change /veh ID3 (11757404_x_at) / RFU PLEKHG5 (11737974_s_at) / Fold change /veh PLEKHG5 (11737974_s_at) / RFU LRRC4B (11730491_at) / Fold change /veh LRRC4B (11730491_at) / RFU GIMAP4 (11747438_a_at) / Fold change /veh GIMAP4 (11747438_a_at) / RFU KRT8 (11758183_x_at) / Fold change /veh KRT8 (11758183_x_at) / RFU CNN1 (11734310_a_at) / Fold change /veh CNN1 (11734310_a_at) / RFU VPS37D (11726825_at) / Fold change /veh VPS37D (11726825_at) / RFU C10orf10 (11716522_x_at) / Fold change /veh C10orf10 (11716522_x_at) / RFU KIR2DL2 /// KIR2DL4 /// KIR2DL5A /// KIR2DL5B /// KIR2DS1 /// KIR2DS2 /// KIR2DS3 /// KIR2DS4 /// KIR3DL3 /// KIR3DL3 /// KIR3DS1 (11738374_at) / Fold change /veh KIR2DL2 /// KIR2DL4 /// KIR2DL5A /// KIR2DL5B /// KIR2DS1 /// KIR2DS2 /// KIR2DS3 /// KIR2DS4 /// KIR3DL3 /// KIR3DL3 /// KIR3DS1 (11738374_at) / RFU C1QL1 (11718748_at) / Fold change /veh C1QL1 (11718748_at) / RFU TMPRSS4 (11747572_a_at) / Fold change /veh TMPRSS4 (11747572_a_at) / RFU HAMP (11756126_x_at) / Fold change /veh HAMP (11756126_x_at) / RFU RNFT2 (11725882_a_at) / Fold change /veh RNFT2 (11725882_a_at) / RFU NR4A2 (11747474_a_at) / Fold change /veh NR4A2 (11747474_a_at) / RFU ABCC12 (11746883_a_at) / Fold change /veh ABCC12 (11746883_a_at) / RFU TMEM136 (11760407_x_at) / Fold change /veh TMEM136 (11760407_x_at) / RFU CLDN22 /// WWC2 (11732394_at) / Fold change /veh CLDN22 /// WWC2 (11732394_at) / RFU HLA-DPB1 (11760878_x_at) / Fold change /veh HLA-DPB1 (11760878_x_at) / RFU SPINT1 (11716480_a_at) / Fold change /veh SPINT1 (11716480_a_at) / RFU GAP43 (11754022_s_at) / Fold change /veh GAP43 (11754022_s_at) / RFU A4GNT (11735810_at) / Fold change /veh A4GNT (11735810_at) / RFU PRB3 (11715151_x_at) / Fold change /veh PRB3 (11715151_x_at) / RFU TUBB4B (11761932_at) / Fold change /veh TUBB4B (11761932_at) / RFU CAPN14 (11732068_a_at) / Fold change /veh CAPN14 (11732068_a_at) / RFU TMCC2 (11721928_a_at) / Fold change /veh TMCC2 (11721928_a_at) / RFU IRGQ (11745062_a_at) / Fold change /veh IRGQ (11745062_a_at) / RFU FAM174B (11720279_a_at) / Fold change /veh FAM174B (11720279_a_at) / RFU TMPRSS4 (11748680_a_at) / Fold change /veh TMPRSS4 (11748680_a_at) / RFU FAM212B (11763350_a_at) / Fold change /veh FAM212B (11763350_a_at) / RFU PLEKHG5 (11743358_a_at) / Fold change /veh PLEKHG5 (11743358_a_at) / RFU ZSCAN30 (11745921_a_at) / Fold change /veh ZSCAN30 (11745921_a_at) / RFU CMKLR1 (11741424_a_at) / Fold change /veh CMKLR1 (11741424_a_at) / RFU LOC101060620 /// MAPK8IP1 (11723275_at) / Fold change /veh LOC101060620 /// MAPK8IP1 (11723275_at) / RFU SPTSSB (11747773_x_at) / Fold change /veh SPTSSB (11747773_x_at) / RFU PRSS12 (11739890_at) / Fold change /veh PRSS12 (11739890_at) / RFU BIN1 (11741810_x_at) / Fold change /veh BIN1 (11741810_x_at) / RFU WNT11 (11732464_a_at) / Fold change /veh WNT11 (11732464_a_at) / RFU C10orf10 (11716521_a_at) / Fold change /veh C10orf10 (11716521_a_at) / RFU C5orf56 (11738089_at) / Fold change /veh C5orf56 (11738089_at) / RFU CYB561 (11721691_x_at) / Fold change /veh CYB561 (11721691_x_at) / RFU ANKRD19P (11752326_a_at) / Fold change /veh ANKRD19P (11752326_a_at) / RFU OR2T12 /// OR2T33 /// OR2T8 (11738714_s_at) / Fold change /veh OR2T12 /// OR2T33 /// OR2T8 (11738714_s_at) / RFU VCAN (11748164_a_at) / Fold change /veh VCAN (11748164_a_at) / RFU JSRP1 (11732532_at) / Fold change /veh JSRP1 (11732532_at) / RFU KRTAP10-11 (11738290_x_at) / Fold change /veh KRTAP10-11 (11738290_x_at) / RFU MYO3A (11730013_a_at) / Fold change /veh MYO3A (11730013_a_at) / RFU EBF3 (11725865_a_at) / Fold change /veh EBF3 (11725865_a_at) / RFU CAMK2N1 (11719241_x_at) / Fold change /veh CAMK2N1 (11719241_x_at) / RFU C5orf56 (11738088_a_at) / Fold change /veh C5orf56 (11738088_a_at) / RFU OLFML3 (11715873_a_at) / Fold change /veh OLFML3 (11715873_a_at) / RFU LOC100653217 /// NTM (11731650_a_at) / Fold change /veh LOC100653217 /// NTM (11731650_a_at) / RFU MAPK11 (11762145_a_at) / Fold change /veh MAPK11 (11762145_a_at) / RFU FIZ1 (11724087_x_at) / Fold change /veh FIZ1 (11724087_x_at) / RFU OASL (11726364_x_at) / Fold change /veh OASL (11726364_x_at) / RFU SOX15 (11748057_x_at) / Fold change /veh SOX15 (11748057_x_at) / RFU CD79A (11719716_a_at) / Fold change /veh CD79A (11719716_a_at) / RFU HIST1H1D (11736915_at) / Fold change /veh HIST1H1D (11736915_at) / RFU CASKIN2 (11723855_a_at) / Fold change /veh CASKIN2 (11723855_a_at) / RFU LOC730098 (11760151_x_at) / Fold change /veh LOC730098 (11760151_x_at) / RFU OR4N2 (11742367_at) / Fold change /veh OR4N2 (11742367_at) / RFU PRRT2 (11749266_a_at) / Fold change /veh PRRT2 (11749266_a_at) / RFU SNX32 (11753110_a_at) / Fold change /veh SNX32 (11753110_a_at) / RFU CDHR5 (11726645_a_at) / Fold change /veh CDHR5 (11726645_a_at) / RFU RCAN1 (11760418_a_at) / Fold change /veh RCAN1 (11760418_a_at) / RFU FAM167A (11723789_a_at) / Fold change /veh FAM167A (11723789_a_at) / RFU FAM26E (11764081_at) / Fold change /veh FAM26E (11764081_at) / RFU ISYNA1 (11749810_s_at) / Fold change /veh ISYNA1 (11749810_s_at) / RFU ACY1 (11761880_at) / Fold change /veh ACY1 (11761880_at) / RFU 11764098_at / Fold change /veh 11764098_at / RFU SAMD14 (11745864_x_at) / Fold change /veh SAMD14 (11745864_x_at) / RFU NPB (11741838_a_at) / Fold change /veh NPB (11741838_a_at) / RFU TMPRSS6 (11731388_a_at) / Fold change /veh TMPRSS6 (11731388_a_at) / RFU KRTAP10-2 (11738614_at) / Fold change /veh KRTAP10-2 (11738614_at) / RFU ARHGAP8 /// PRR5-ARHGAP8 (11727945_x_at) / Fold change /veh ARHGAP8 /// PRR5-ARHGAP8 (11727945_x_at) / RFU KRTAP5-7 /// NADSYN1 (11734609_at) / Fold change /veh KRTAP5-7 /// NADSYN1 (11734609_at) / RFU RASL12 (11751679_a_at) / Fold change /veh RASL12 (11751679_a_at) / RFU CDKN2B (11736163_a_at) / Fold change /veh CDKN2B (11736163_a_at) / RFU PRF1 (11729649_at) / Fold change /veh PRF1 (11729649_at) / RFU, ZNF638 /// ZNF638-IT1 / Fold change vs veh, ZNF638 /// ZNF638-IT1 / RFU, PANK3 / Fold change vs veh, PANK3 / RFU, SH3YL1 / Fold change vs veh, SH3YL1 / RFU, ZEB2 / Fold change vs veh, ZEB2 / RFU, NRIP1 / Fold change vs veh, NRIP1 / RFU, PTTG1IP / Fold change vs veh, PTTG1IP / RFU, CAPN2 / Fold change vs veh, CAPN2 / RFU, MED14 / Fold change vs veh, MED14 / RFU, SNORA58 / Fold change vs veh, SNORA58 / RFU, C1orf63 / Fold change vs veh, C1orf63 / RFU, LRRFIP1 / Fold change vs veh, LRRFIP1 / RFU, NDUFAF7 / Fold change vs veh, NDUFAF7 / RFU, SLC12A2 / Fold change vs veh, SLC12A2 / RFU, IBTK / Fold change vs veh, IBTK / RFU, ESF1 / Fold change vs veh, ESF1 / Fold change vs veh, TMEM50B / RFU, TAOK1 / Fold change vs veh, TAOK1 / RFU, ACBD3 / Fold change vs veh, ACBD3 / RFU, TMA16 / Fold change vs veh, TMA16 / RFU, RWDD3 / Fold change vs veh, RWDD3 / RFU, BCAT1 / Fold change vs veh, BCAT1 / RFU, EDEM3 / Fold change vs veh, EDEM3 / RFU, TMEM33 / Fold change vs veh, TMEM33 / RFU, WDR75 / Fold change vs veh, WDR75 / RFU, AHCTF1 / Fold change vs veh, AHCTF1 / RFU, TFRC / Fold change vs veh, TFRC / RFU, ZDHHC17 / Fold change vs veh, ZDHHC17 / RFU, NOM1 / Fold change vs veh, NOM1 / RFU, ARL8B / Fold change vs veh, ARL8B / RFU, ZBTB11 / Fold change vs veh, ZBTB11 / RFU, TAMM41 / Fold change vs veh, TAMM41 / RFU, KIAA1704 /// LOC100996395 / Fold change vs veh, KIAA1704 /// LOC100996395 / RFU, ING1 / Fold change vs veh, ING1 / RFU, TRMT61B / Fold change vs veh, TRMT61B / RFU, FUBP3 / Fold change vs veh, FUBP3 / RFU, TP53 / Fold change vs veh, TP53 / RFU, TNKS2 / Fold change vs veh, TNKS2 / RFU, ZFP14 / Fold change vs veh, ZFP14 / RFU, ACTR2 / Fold change vs veh, ACTR2 / RFU, PPP3R1 / Fold change vs veh, PPP3R1 / RFU, PIK3R1 / Fold change vs veh, PIK3R1 / RFU, HNRNPA1 / Fold change vs veh, HNRNPA1 / RFU, RNF170 / Fold change vs veh, RNF170 / RFU, ZNF28 / Fold change vs veh, ZNF28 / RFU, RNGTT / Fold change vs veh, RNGTT / RFU, OGT / Fold change vs veh, OGT / RFU, BRD1 / Fold change vs veh, BRD1 / RFU, MARS / Fold change vs veh, MARS / RFU, ZNF655 / Fold change vs veh, ZNF655 / RFU, FAHD1 / Fold change vs veh, FAHD1 / RFU, BDP1 / Fold change vs veh, BDP1 / RFU, LRRCC1 / Fold change vs veh, LRRCC1 / RFU, ARID1A / Fold change vs veh, ARID1A / RFU, ZNF146 / Fold change vs veh, ZNF146 / RFU, ZNF330 / Fold change vs veh, ZNF330 / RFU, GPN3 / Fold change vs veh, GPN3 / RFU, C9orf123 / Fold change vs veh, C9orf123 / RFU, N4BP2L2 / Fold change vs veh, N4BP2L2 / RFU, ARFIP1 / Fold change vs veh, ARFIP1 / RFU, FAM179B / Fold change vs veh, FAM179B / RFU, BCL10 / Fold change vs veh, BCL10 / RFU, UHRF1BP1L / Fold change vs veh, UHRF1BP1L / RFU, BET1 / Fold change vs veh, BET1 / RFU, CNOT2 / Fold change vs veh, CNOT2 / RFU, ZNF268 / Fold change vs veh, ZNF268 / Fold change vs veh, ZNF507 / RFU, DGCR2 / Fold change vs veh, DGCR2 / RFU, WDSUB1 / Fold change vs veh, WDSUB1 / Fold change vs veh, HSP90B1 /// MIR3652 / RFU, ADSS / Fold change vs veh, ADSS / RFU, GK / Fold change vs veh, GK / RFU, ZNF148 / Fold change vs veh, ZNF148 / RFU, TAF9 / Fold change vs veh, TAF9 / RFU, SLC1A5 / Fold change vs veh, SLC1A5 / RFU, SLMO2 / Fold change vs veh, SLMO2 / RFU, ABCC4 / Fold change vs veh, ABCC4 / RFU, LOC101060439 /// RAP1B / Fold change vs veh, LOC101060439 /// RAP1B / RFU, RFX7 / Fold change vs veh, RFX7 / RFU, GTPBP10 / Fold change vs veh, GTPBP10 / RFU, CNEP1R1 / Fold change vs veh, CNEP1R1 / RFU, BIVM-ERCC5 /// ERCC5 / Fold change vs veh, BIVM-ERCC5 /// ERCC5 / RFU, ILF3 / Fold change vs veh, ILF3 / RFU 11762660_at / Fold change /veh 11762660_at / RFU VCAN (11757783_s_at) / Fold change /veh VCAN (11757783_s_at) / RFU DDX43 (11728927_at) / Fold change /veh DDX43 (11728927_at) / RFU KRT8 (11758188_x_at) / Fold change /veh KRT8 (11758188_x_at) / RFU NKD1 (11759106_at) / Fold change /veh NKD1 (11759106_at) / RFU SRD5A1 (11742802_a_at) / Fold change /veh SRD5A1 (11742802_a_at) / RFU TPSAB1 /// TPSB2 (11721975_s_at) / Fold change /veh TPSAB1 /// TPSB2 (11721975_s_at) / RFU GSTM3 (11746129_a_at) / Fold change /veh GSTM3 (11746129_a_at) / RFU IL23R (11737362_x_at) / Fold change /veh IL23R (11737362_x_at) / RFU TMEM51 (11727254_a_at) / Fold change /veh TMEM51 (11727254_a_at) / RFU PIWIL2 (11732686_x_at) / Fold change /veh PIWIL2 (11732686_x_at) / RFU ORM1 (11744905_x_at) / Fold change /veh ORM1 (11744905_x_at) / RFU CCDC152 (11743942_at) / Fold change /veh CCDC152 (11743942_at) / RFU ECM1 (11717891_a_at) / Fold change /veh ECM1 (11717891_a_at) / RFU IL23R (11748794_a_at) / Fold change /veh IL23R (11748794_a_at) / RFU TNFAIP8L3 (11732012_x_at) / Fold change /veh TNFAIP8L3 (11732012_x_at) / RFU MBOAT4 (11741988_at) / Fold change /veh MBOAT4 (11741988_at) / RFU 11764193_at / Fold change /veh 11764193_at / RFU TMEM53 (11763286_at) / Fold change /veh TMEM53 (11763286_at) / RFU MAGEB2 (11727129_at) / Fold change /veh MAGEB2 (11727129_at) / RFU TMEM200A (11744735_a_at) / Fold change /veh TMEM200A (11744735_a_at) / RFU CCDC152 (11751479_a_at) / Fold change /veh CCDC152 (11751479_a_at) / RFU FAM211A (11726209_a_at) / Fold change /veh FAM211A (11726209_a_at) / RFU RGS16 (11746705_a_at) / Fold change /veh RGS16 (11746705_a_at) / RFU VCAN (11755009_s_at) / Fold change /veh VCAN (11755009_s_at) / RFU RHOB (11743442_s_at) / Fold change /veh RHOB (11743442_s_at) / RFU RGS16 (11720943_a_at) / Fold change /veh RGS16 (11720943_a_at) / RFU RGS16 (11720944_at) / Fold change /veh RGS16 (11720944_at) / RFU, VPS4B / Fold change vs veh, VPS4B / RFU, CREB1 / Fold change vs veh, CREB1 / RFU, DNAJC13 / Fold change vs veh, DNAJC13 / RFU, GNAQ / Fold change vs veh, GNAQ / RFU, CDK5R1 / Fold change vs veh, CDK5R1 / RFU, ZRANB3 / Fold change vs veh, ZRANB3 / RFU, CUL4A / Fold change vs veh, CUL4A / RFU, CCNY / Fold change vs veh, CCNY / RFU, UFL1 / Fold change vs veh, UFL1 / RFU, COG3 / Fold change vs veh, COG3 / RFU, DIAPH2 / Fold change vs veh, DIAPH2 / RFU, SKA2 / Fold change vs veh, SKA2 / RFU, AFF3 / Fold change vs veh, AFF3 / RFU, LMF1 / Fold change vs veh, LMF1 / RFU, IPO11 / Fold change vs veh, IPO11 / RFU, DFFB / Fold change vs veh, DFFB / RFU, FOXP1 / Fold change vs veh, FOXP1 / RFU, CARD8 / Fold change vs veh, CARD8 / RFU, STRN3 / Fold change vs veh, STRN3 / RFU, ADK / Fold change vs veh, ADK / RFU, RASSF2 / Fold change vs veh, RASSF2 / RFU, WIPF1 / Fold change vs veh, WIPF1 / RFU, LARP1B / Fold change vs veh, LARP1B / RFU, RASA1 / Fold change vs veh, RASA1 / RFU, RB1 / Fold change vs veh, RB1 / RFU, PPFIA1 / Fold change vs veh, PPFIA1 / RFU, MAT2A / Fold change vs veh, MAT2A / RFU, CCT5 / Fold change vs veh, CCT5 / RFU, WDR92 / Fold change vs veh, WDR92 / RFU, CUX1 / Fold change vs veh, CUX1 / RFU, TTC7A / Fold change vs veh, TTC7A / RFU, TMEM135 / Fold change vs veh, TMEM135 / RFU, DEPTOR / Fold change vs veh, DEPTOR / RFU, CPM / Fold change vs veh, CPM / RFU, DNAJB6 / Fold change vs veh, DNAJB6 / RFU, CACNA2D3 / Fold change vs veh, CACNA2D3 / RFU, DTX4 / Fold change vs veh, DTX4 / RFU, TFCP2 / Fold change vs veh, TFCP2 / RFU, GMCL1 /// GMCL1P1 / Fold change vs veh, GMCL1 /// GMCL1P1 / RFU, AEBP2 / Fold change vs veh, AEBP2 / RFU, SNHG1 /// SNORD22 /// SNORD25 /// SNORD26 /// SNORD27 /// SNORD28 /// SNORD29 /// SNORD31 / Fold change vs veh, SNHG1 /// SNORD22 /// SNORD25 /// SNORD26 /// SNORD27 /// SNORD28 /// SNORD29 /// SNORD31 / Fold change (Aza/veh), C12orf56 (ProbeSet 11735607_a_at) / Fold change (ACY-1035/veh), C12orf56 (ProbeSet 11735607_a_at) / Fold change (Aza/veh), FGFR1OP (ProbeSet 11751329_s_at) / Fold change (ACY-1035/veh), FGFR1OP (ProbeSet 11751329_s_at) / Fold change (Aza/veh), VPS36 (ProbeSet 11739960_a_at) / Fold change (ACY-1035/veh), VPS36 (ProbeSet 11739960_a_at) / RFU SYPL1 (11715823_x_at) / Fold change /veh SYPL1 (11715823_x_at) / RFU IGFBP7 (11715501_s_at) / Fold change /veh IGFBP7 (11715501_s_at) / RFU REEP3 (11722064_at) / Fold change /veh REEP3 (11722064_at) / RFU IGLL1 (11728026_x_at) / Fold change /veh IGLL1 (11728026_x_at): dose or concentration left out as unconfirmed. Particulars: MV-4-11 cells, 48 hours.

As for `Nc1ncn([C@@H]2O[C@H](CO)[C@@H](O)[C@H]2O)c(=O)n1` [azacitidine], the “Fold change /veh VCAN (11755009_s_at)” value was determined as 1.97.
